Measured values: ChEMBL document CHEMBL4507304, “Data for DCP probe TP-021” (2021)

Legend:
[1] = molecular target: Death-associated protein kinase 1 (Homo sapiens) (UniProt P53355); conditions: Compound concentration 1000.0 nM
[2] = tested on: Mast/stem cell growth factor receptor Kit (Homo sapiens), P10721 [A829P]; conditions: Compound concentration 1000.0 nM
[3] = molecular target: GABA-A receptor; anion channel (Rattus norvegicus) (UniProt O09028+P15431+P18506+P18508+P19969+P20236+P23574+P23576+P28471+P28473+P30191+P62813+P63079+P63138+Q91ZM7+Q9ES14); conditions: Compound concentration 10.0 uM
[4] = molecular target: Casein kinase I isoform gamma-2 (Homo sapiens) (UniProt P78368); conditions: Compound concentration 1000.0 nM
[5] = molecular target: Serine/threonine-protein kinase PAK 2 (Homo sapiens) (UniProt Q13177); conditions: Compound concentration 1000.0 nM
[6] = tested on: Epidermal growth factor receptor (Homo sapiens), P00533 [UNDEFINED MUTATION]; conditions: Compound concentration 1000.0 nM
[7] = molecular target: Tyrosine-protein kinase SYK (Homo sapiens) (UniProt P43405); conditions: Compound concentration 1000.0 nM
[8] = molecular target: Phosphatidylinositol 4-phosphate 3-kinase C2 domain-containing subunit beta (Homo sapiens) (UniProt O00750); conditions: Compound concentration 1000.0 nM
[9] = molecular target: Calcium/calmodulin-dependent protein kinase type 1G (Homo sapiens) (UniProt Q96NX5); conditions: Compound concentration 1000.0 nM
Chain of Calcium/calmodulin-dependent protein kinase type 1G (Homo sapiens) (Q96NX5 whole entry): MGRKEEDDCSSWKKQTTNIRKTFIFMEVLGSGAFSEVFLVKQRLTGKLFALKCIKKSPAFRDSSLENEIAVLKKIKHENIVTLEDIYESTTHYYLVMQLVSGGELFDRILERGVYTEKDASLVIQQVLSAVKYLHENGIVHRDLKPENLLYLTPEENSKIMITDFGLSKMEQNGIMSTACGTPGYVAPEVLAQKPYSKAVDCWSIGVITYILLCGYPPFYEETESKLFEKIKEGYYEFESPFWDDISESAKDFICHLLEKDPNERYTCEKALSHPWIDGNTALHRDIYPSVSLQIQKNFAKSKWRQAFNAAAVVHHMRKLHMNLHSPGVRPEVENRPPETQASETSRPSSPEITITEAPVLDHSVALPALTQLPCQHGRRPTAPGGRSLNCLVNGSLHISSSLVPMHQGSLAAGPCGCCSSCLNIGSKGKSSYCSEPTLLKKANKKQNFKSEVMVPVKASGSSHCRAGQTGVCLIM

[10] = molecular target: Ephrin type-A receptor 6 (Homo sapiens) (UniProt Q9UF33); conditions: Compound concentration 1000.0 nM
[11] = molecular target: Protein kinase C delta type (Homo sapiens) (UniProt Q05655); conditions: Compound concentration 1000.0 nM
[12] = molecular target: Protein kinase C epsilon type (Homo sapiens) (UniProt Q02156); conditions: Compound concentration 1000.0 nM
[13] = molecular target: Mitogen-activated protein kinase 8 (Homo sapiens) (UniProt P45983); conditions: Compound concentration 1000.0 nM
[14] = molecular target: Tyrosine-protein kinase Mer (Homo sapiens) (UniProt Q12866); conditions: Compound concentration 1000.0 nM
Chain of Tyrosine-protein kinase Mer (Homo sapiens) (Q12866 whole entry): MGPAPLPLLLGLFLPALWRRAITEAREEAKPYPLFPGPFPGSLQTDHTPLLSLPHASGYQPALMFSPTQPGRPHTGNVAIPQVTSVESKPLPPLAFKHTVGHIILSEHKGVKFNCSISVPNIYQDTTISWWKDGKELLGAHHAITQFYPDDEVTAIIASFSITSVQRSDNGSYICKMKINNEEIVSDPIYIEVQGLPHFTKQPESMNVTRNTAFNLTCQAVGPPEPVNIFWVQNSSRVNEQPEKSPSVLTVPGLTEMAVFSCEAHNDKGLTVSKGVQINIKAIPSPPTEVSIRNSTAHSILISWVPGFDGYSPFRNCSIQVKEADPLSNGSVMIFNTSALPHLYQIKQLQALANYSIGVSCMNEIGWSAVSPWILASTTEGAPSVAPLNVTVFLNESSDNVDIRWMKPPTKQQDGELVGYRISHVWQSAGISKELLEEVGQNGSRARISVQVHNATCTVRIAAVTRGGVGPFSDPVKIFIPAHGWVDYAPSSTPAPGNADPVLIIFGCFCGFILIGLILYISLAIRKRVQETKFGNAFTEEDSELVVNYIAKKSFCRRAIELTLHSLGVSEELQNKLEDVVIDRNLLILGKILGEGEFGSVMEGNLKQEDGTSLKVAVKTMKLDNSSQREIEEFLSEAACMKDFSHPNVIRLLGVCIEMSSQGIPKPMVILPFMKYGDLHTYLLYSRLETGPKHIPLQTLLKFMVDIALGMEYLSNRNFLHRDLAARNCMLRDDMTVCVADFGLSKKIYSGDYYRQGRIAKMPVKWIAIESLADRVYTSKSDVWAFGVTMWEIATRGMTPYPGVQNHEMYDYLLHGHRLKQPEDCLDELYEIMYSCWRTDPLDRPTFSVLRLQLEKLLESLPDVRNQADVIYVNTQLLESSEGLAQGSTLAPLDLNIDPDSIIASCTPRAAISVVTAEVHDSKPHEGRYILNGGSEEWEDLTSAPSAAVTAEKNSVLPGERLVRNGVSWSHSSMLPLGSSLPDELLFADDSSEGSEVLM

[15] = molecular target: Serine/threonine-protein kinase RIO1 (Homo sapiens) (UniProt Q9BRS2); conditions: Compound concentration 1000.0 nM
[16] = tested on: Tyrosine-protein kinase ABL1 (Homo sapiens), P00519 [Q252H]; conditions: Compound concentration 1000.0 nM
[17] = molecular target: MAP/microtubule affinity-regulating kinase 4 (Homo sapiens) (UniProt Q96L34); conditions: Compound concentration 1000.0 nM
[18] = tested on: Tyrosine-protein kinase ABL1 (Homo sapiens), P00519 [M351T]; conditions: Compound concentration 1000.0 nM
[19] = molecular target: Mitogen-activated protein kinase kinase kinase 3 (Homo sapiens) (UniProt Q99759); conditions: Compound concentration 1000.0 nM
[20] = molecular target: Calcium-dependent protein kinase 1 (Plasmodium falciparum) (UniProt P62344); conditions: Compound concentration 1000.0 nM
Chain of Calcium-dependent protein kinase 1 (Plasmodium falciparum) (P62344 2-524 limits assumed): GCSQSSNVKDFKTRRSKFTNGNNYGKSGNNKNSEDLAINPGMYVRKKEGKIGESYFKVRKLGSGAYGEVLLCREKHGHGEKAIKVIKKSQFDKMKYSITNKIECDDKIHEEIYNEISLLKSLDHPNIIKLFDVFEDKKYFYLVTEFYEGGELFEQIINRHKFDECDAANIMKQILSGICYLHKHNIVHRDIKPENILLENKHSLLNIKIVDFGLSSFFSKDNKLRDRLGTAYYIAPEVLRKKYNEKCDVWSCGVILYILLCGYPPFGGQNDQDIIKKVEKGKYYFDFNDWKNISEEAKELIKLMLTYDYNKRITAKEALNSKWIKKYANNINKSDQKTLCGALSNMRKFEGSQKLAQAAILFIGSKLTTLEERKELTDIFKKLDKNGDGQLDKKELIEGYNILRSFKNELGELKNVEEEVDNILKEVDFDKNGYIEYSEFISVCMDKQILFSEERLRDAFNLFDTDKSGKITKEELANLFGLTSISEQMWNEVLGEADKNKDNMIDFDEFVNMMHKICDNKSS

[21] = tested on: eIF-2-alpha kinase GCN2 (Homo sapiens), Q9P2K8 [S808G]; conditions: Compound concentration 1000.0 nM
[22] = molecular target: Serine/threonine-protein kinase 32B (Homo sapiens) (UniProt Q9NY57); conditions: Compound concentration 1000.0 nM
[23] = tested on: Mast/stem cell growth factor receptor Kit (Homo sapiens), P10721 [D816V]; conditions: Compound concentration 1000.0 nM
[24] = molecular target: Ribosomal protein S6 kinase alpha-3 (Homo sapiens) (UniProt P51812); conditions: Compound concentration 1000.0 nM
[25] = molecular target: Citron Rho-interacting kinase (Homo sapiens) (UniProt O14578); conditions: Compound concentration 1000.0 nM
Chain of Citron Rho-interacting kinase (Homo sapiens) (O14578 whole entry): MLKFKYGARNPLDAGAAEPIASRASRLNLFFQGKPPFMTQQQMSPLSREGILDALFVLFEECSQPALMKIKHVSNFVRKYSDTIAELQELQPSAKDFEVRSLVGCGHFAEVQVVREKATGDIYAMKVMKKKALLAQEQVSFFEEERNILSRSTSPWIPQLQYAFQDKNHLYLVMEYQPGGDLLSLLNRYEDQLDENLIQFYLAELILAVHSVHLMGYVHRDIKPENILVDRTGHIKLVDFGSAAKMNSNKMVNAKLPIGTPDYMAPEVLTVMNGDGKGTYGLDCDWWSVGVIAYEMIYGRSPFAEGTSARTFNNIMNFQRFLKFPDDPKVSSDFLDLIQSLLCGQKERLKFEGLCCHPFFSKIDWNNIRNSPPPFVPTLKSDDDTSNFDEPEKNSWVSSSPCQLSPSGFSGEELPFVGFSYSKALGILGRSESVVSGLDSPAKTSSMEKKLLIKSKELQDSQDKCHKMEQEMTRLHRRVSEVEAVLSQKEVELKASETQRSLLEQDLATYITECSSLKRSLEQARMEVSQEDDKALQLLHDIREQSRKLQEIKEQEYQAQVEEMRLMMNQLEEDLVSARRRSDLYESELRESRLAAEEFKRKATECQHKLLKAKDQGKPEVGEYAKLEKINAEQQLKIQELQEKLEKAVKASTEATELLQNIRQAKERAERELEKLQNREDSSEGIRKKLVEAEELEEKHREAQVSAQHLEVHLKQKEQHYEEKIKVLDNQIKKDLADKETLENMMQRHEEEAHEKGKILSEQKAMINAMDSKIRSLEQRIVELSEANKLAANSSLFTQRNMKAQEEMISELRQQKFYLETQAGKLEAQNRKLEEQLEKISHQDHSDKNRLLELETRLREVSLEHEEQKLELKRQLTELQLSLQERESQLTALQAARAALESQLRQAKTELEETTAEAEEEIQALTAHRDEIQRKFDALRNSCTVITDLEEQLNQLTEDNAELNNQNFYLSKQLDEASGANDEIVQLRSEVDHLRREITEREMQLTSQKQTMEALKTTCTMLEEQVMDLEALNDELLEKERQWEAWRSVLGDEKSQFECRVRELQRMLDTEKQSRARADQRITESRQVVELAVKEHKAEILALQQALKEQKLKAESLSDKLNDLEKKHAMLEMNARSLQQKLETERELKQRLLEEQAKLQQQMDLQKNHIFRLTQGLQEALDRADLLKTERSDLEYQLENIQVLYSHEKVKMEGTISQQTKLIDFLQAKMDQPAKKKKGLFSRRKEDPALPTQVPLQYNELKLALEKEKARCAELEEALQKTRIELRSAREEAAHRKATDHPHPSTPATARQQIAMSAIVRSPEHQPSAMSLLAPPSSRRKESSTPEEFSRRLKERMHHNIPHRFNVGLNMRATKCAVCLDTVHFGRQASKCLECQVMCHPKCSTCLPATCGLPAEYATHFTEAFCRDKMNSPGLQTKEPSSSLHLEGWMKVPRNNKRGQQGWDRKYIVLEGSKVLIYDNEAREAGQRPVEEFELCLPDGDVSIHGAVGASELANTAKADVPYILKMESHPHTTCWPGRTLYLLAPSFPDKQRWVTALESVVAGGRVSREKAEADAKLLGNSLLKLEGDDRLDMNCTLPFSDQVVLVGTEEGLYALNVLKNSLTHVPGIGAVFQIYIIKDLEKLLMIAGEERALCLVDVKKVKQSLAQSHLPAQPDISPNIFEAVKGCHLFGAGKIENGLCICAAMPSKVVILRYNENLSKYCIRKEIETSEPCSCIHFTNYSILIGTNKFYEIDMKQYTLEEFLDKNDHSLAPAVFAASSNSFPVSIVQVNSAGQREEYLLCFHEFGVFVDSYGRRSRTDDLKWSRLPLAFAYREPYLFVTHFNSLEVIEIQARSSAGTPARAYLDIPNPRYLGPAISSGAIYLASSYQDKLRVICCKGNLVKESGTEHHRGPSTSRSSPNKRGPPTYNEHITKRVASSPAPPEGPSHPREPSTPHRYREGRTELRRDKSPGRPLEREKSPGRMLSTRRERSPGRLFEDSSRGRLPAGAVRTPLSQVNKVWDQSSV

[26] = molecular target: Serine/threonine-protein kinase ULK1 (Homo sapiens) (UniProt O75385); conditions: Compound concentration 1000.0 nM
[27] = molecular target: Peripheral plasma membrane protein CASK (Homo sapiens) (UniProt O14936); conditions: Compound concentration 1000.0 nM
[28] = molecular target: Casein kinase I isoform delta (Homo sapiens) (UniProt P48730); conditions: Compound concentration 1000.0 nM
[29] = tested on: Epidermal growth factor receptor (Homo sapiens), P00533 [UNDEFINED MUTATION]; conditions: Compound concentration 1000.0 nM; remark: listed apart in the source
[30] = molecular target: Tyrosine-protein kinase Blk (Homo sapiens) (UniProt P51451); conditions: Compound concentration 1000.0 nM
[31] = molecular target: NUAK family SNF1-like kinase 1 (Homo sapiens) (UniProt O60285); conditions: Compound concentration 1000.0 nM
[32] = molecular target: Casein kinase II subunit alpha' (Homo sapiens) (UniProt P19784); conditions: Compound concentration 1000.0 nM
[33] = molecular target: Ephrin type-B receptor 6 (Homo sapiens) (UniProt O15197); conditions: Compound concentration 1000.0 nM
[34] = molecular target: Calcium/calmodulin-dependent protein kinase type IV (Homo sapiens) (UniProt Q16566); conditions: Compound concentration 1000.0 nM
[35] = tested on: Epidermal growth factor receptor (Homo sapiens), P00533 [L858R]; conditions: Compound concentration 1000.0 nM
[36] = molecular target: Casein kinase I isoform alpha (Homo sapiens) (UniProt P48729); conditions: Compound concentration 1000.0 nM
[37] = molecular target: Serine/threonine-protein kinase DCLK1 (Homo sapiens) (UniProt O15075); conditions: Compound concentration 1000.0 nM
[38] = molecular target: Mast/stem cell growth factor receptor Kit (Homo sapiens) (UniProt P10721); conditions: Compound concentration 1000.0 nM
[39] = molecular target: Discoidin domain-containing receptor 2 (Homo sapiens) (UniProt Q16832); conditions: Compound concentration 1000.0 nM
[40] = molecular target: Serine/threonine-protein kinase/endoribonuclease IRE1 (Homo sapiens) (UniProt O75460); conditions: Compound concentration 1000.0 nM
Chain of Serine/threonine-protein kinase/endoribonuclease IRE1 (Homo sapiens) (O75460 19-977 limits assumed): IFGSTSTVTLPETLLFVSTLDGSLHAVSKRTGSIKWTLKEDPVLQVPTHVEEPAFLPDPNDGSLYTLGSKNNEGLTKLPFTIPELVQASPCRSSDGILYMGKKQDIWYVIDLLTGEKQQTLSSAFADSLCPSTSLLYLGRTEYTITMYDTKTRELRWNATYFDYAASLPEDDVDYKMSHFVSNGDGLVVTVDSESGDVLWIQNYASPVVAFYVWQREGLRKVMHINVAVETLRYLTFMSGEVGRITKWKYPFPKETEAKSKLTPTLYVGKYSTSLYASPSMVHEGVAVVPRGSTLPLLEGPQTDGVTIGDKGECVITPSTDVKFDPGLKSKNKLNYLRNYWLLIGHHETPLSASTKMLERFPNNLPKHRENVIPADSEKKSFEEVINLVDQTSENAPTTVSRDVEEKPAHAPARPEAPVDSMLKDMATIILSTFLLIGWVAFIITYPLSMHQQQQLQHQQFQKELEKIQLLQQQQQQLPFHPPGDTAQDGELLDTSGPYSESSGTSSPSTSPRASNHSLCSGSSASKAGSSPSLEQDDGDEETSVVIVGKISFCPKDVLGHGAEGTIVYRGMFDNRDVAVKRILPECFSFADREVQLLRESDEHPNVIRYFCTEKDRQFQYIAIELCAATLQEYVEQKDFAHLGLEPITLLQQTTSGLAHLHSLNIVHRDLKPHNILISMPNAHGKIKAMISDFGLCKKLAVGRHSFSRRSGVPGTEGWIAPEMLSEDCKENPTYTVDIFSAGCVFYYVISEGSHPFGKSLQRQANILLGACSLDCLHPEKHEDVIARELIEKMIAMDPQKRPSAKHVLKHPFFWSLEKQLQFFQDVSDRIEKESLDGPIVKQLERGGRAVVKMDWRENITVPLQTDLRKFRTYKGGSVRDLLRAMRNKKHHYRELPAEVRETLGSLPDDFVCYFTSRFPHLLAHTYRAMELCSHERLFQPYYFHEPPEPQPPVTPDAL

[41] = molecular target: Muscarinic acetylcholine receptor M2 (Homo sapiens) (UniProt P08172); conditions: Compound concentration 10.0 uM
[42] = molecular target: Serine/threonine-protein kinase LATS2 (Homo sapiens) (UniProt Q9NRM7); conditions: Compound concentration 1000.0 nM
[43] = molecular target: Mitogen-activated protein kinase kinase kinase kinase 3 (Homo sapiens) (UniProt Q8IVH8); conditions: Compound concentration 1000.0 nM
[44] = molecular target: Cyclin-dependent kinase 11B (Homo sapiens) (UniProt P21127); conditions: Compound concentration 1000.0 nM

N#Cc1ccc(Nc2ccc3[nH]c(=O)[nH]c3c2)c(Cl)c1
inactive: residual activity [1] 100% | residual activity [2] 100% | inhibition [3] 15.5% | residual activity [4] 100% | residual activity [5] 79% | residual activity [6] 62% | residual activity [7] 100% | residual activity [8] 99% | residual activity [9] 100% | residual activity [10] 82% | residual activity [11] 100% | residual activity [12] 100% | residual activity [13] 98% | residual activity [14] 100% | residual activity [15] 100% | residual activity [16] 89% | residual activity [17] 99% | residual activity [18] 100% | residual activity [19] 84% | residual activity [20] 99% | residual activity [21] 93% | residual activity [22] 92% | residual activity [23] 88% | residual activity [24] 100% | residual activity [25] 100% | residual activity [26] 81% | residual activity [27] 100% | residual activity [28] 100% | residual activity [29] 100% | residual activity [30] 97% | residual activity [31] 100% | residual activity [32] 83% | residual activity [33] 100% | residual activity [34] 100% | residual activity [35] 100% | residual activity [36] 100% | residual activity [37] 84% | residual activity [38] 100% | residual activity [39] 100% | residual activity [40] 86% | inhibition [41] 3.51% | residual activity [42] 95% | residual activity [43] 88% | residual activity [44] 100%

O=C1CCc2cc(Nc3cc(OC4CCOCC4)c([N+](=O)[O-])cc3Cl)ccc2N1
inactive: residual activity [1] 90% | residual activity [2] 100% | inhibition [3] 12.7% | residual activity [4] 88% | residual activity [5] 96% | residual activity [6] 65% | residual activity [7] 100% | residual activity [8] 89% | residual activity [9] 100% | residual activity [10] 80% | residual activity [11] 100% | residual activity [12] 93% | residual activity [13] 91% | residual activity [14] 100% | residual activity [15] 100% | residual activity [16] 79% | residual activity [17] 100% | residual activity [18] 100% | residual activity [19] 95% | residual activity [20] 100% | residual activity [21] 85% | residual activity [22] 88% | residual activity [23] 100% | residual activity [24] 100% | residual activity [25] 100% | residual activity [26] 87% | residual activity [27] 100% | residual activity [28] 90% | residual activity [29] 100% | residual activity [30] 94% | residual activity [31] 100% | residual activity [32] 76% | residual activity [33] 100% | residual activity [34] 100% | residual activity [35] 100% | residual activity [36] 100% | residual activity [37] 95% | residual activity [38] 95% | residual activity [39] 100% | residual activity [40] 99% | inhibition [41] 5.41% | residual activity [42] 80% | residual activity [43] 91% | residual activity [44] 98%
